The test system of assay [1] is AsPC-1. As to the kind of experiment: MTT assay, RdB/IL-12/DCN with gemcitabine. It counts as cell-based, human. The conditions noted are these: gemcitabine alone at 100 μg/ml. The procedure: (§1) For this purpose, human pancreatic cancer cell lines PANC-1, MIA PaCa-2, and AsPC-1 were infected with RdB/IL-12/DCN of the present invention at a MOI of 0.5 or 2, and treated together with gemcitabine (0.05, 0.2, 1, 2, 5, 20, or 100 μg/ml), and then the degree of apoptosis was observed through MTT assay.

Assay [2] deals with MIA PaCa-2. The assay can be described thus: MTT assay, RdB/IL-12/DCN with gemcitabine. The assay is classed as cell-based, human. The conditions noted are these: gemcitabine alone at 100 μg/ml. The procedure: as §1
Assay [3] deals with PANC-1. As to the kind of experiment: MTT assay, RdB/IL-12/DCN with gemcitabine. The assay is classed as cell-based, human. The conditions noted are these: gemcitabine alone at 100 μg/ml. As for the experimental part: as §1
Background: Tetrazolium assays rely on reduction of a dye to a coloured formazan, in cell work by metabolically active cells.

The test system of assay [4] is MIA PaCa-2-Fluc. As to the kind of experiment: Orthotopic pancreatic cancer animal model, change in size of tumor (IVIS). The settings on record: IVIS imaging; combination: week 1 and 2; RdB/IL-12/DCN 2×10^10 VP i.p. three times, gemcitabine 100 mg/kg twice weekly for 3 weeks. It counts as in vivo, mouse. The procedure: In order to construct an orthotopic pancreatic cancer animal model, a human pancreatic cancer cell line MIA PaCa-2-Fluc was selected and used in the experiment. Tumor cells were injected into the mouse pancreas, and two weeks later, the production of tumors was confirmed through an IVIS imaging machine. Thereafter, RdB/IL-12/DCN was intraperitoneally administered three times at 2×10^10 VP/500 μL every two days, and gemcitabine was administered twice weekly at 100 mg/kg for a total of 3 weeks. Meanwhile, a PBS only administration group was used as a negative control. Before RdB/IL-12/DCN was administered, the size and photon values of tumors were confirmed using the IVIS imaging machine, and at week 1, 2, and 3 after the administration, the changes in size of tumors were quantitatively compared.

In assay [5] the test system is MIA PaCa-2-Fluc. The assay can be described thus: Histological evaluation of orthotopic pancreatic tumors (H&E, PCNA, TUNEL, E1A). It counts as in vivo, mouse. The conditions noted are these: orthotopic MIA PaCa-2-Fluc tumor tissue. As for the experimental part: It was intended to histologically evaluate the anti-tumor effect of the aforementioned experiments. First, the formation of tumors was induced by injecting a human pancreatic cancer cell line MIA PaCa-2-Fluc into the mouse pancreas, and then PBS, gemcitabine, RdB/IL-12/DCN, or gemcitabine+RdB/IL-12/DCN was each administered thereto. Thereafter, hematoxylin-eosin (H & E) staining and PCNA immunohistological staining were performed after collecting the tumor tissues. Further, a TUNEL assay was performed in order to confirm the degree of apoptosis of tumor cells, and immunohistological staining using an antibody against an E1A protein of the adenovirus was performed in order to confirm whether the anti-tumor effect was caused by the replication of the adenovirus present in tumor tissues.

The subject of assay [6] is BxPC-3. The assay can be described thus: Pancreatic cancer subcutaneous animal model. The assay is classed as in vivo, mice. The settings on record: BxPC-3 subcutaneous; RdB/IL-12/RLX intratumoral, gemcitabine 10 mg/kg. The procedure:
(§2) It was intended to verify the anti-tumor effect by the co-administration of RdB/IL-12/RLX and gemcitabine in a pancreatic cancer subcutaneous animal model. The formation of tumors was induced by injecting PANC-1, MIA PaCa-2, or BxPC-3 cells subcutaneously into mice, a change in size of tumors was observed while RdB/IL-12/RLX was administered alone or RdB/IL-12/RLX was administered (administered intratumorally) in combination with gemcitabine (10 mg/kg). Meanwhile, a PBS only administration group was used as a negative control.

Assay [7] has as its system MIA PaCa-2. The assay can be described thus: Pancreatic cancer subcutaneous animal model. The assay is classed as in vivo, mice. The settings on record: MIA PaCa-2 subcutaneous; RdB/IL-12/RLX intratumoral, gemcitabine 10 mg/kg. The procedure: as §2
Assay [8] has as its system PANC-1. The assay can be described thus: Pancreatic cancer subcutaneous animal model. It counts as in vivo, mice. The conditions noted are these: PANC-1 subcutaneous; RdB/IL-12/RLX intratumoral, gemcitabine 10 mg/kg. As for the experimental part:
as §2

Assay [9] relates to MIA PaCa-2. The assay can be described thus: Pancreatic cancer xenograft animal model, extracellular matrix and apoptosis. It counts as in vivo, mice. The settings on record: RdB/IL-12/RLX 2×10^6 pfu, gemcitabine 1.5 mg/kg. As for the experimental part:
In order to construct a pancreatic cancer xenograft animal model, 5×10^5 of MIA PaCa-2 were injected subcutaneously into mice, and then when the size of tumors reached 50 to 100 mm^3, a change in extracellular matrix and an apoptosis effect were observed while 2×10^6 pfu of RdB/IL-12/RLX were administered alone or administered in combination with 1.5 mg/kg of gemcitabine. During the co-administration, RdB/IL-12/RLX was intratumorally administered three times in total at an interval of 2 days, and gemcitabine was intraperitoneally administered once. Thereafter, immunohistological staining and hematoxylin-eosin (H & E) staining were performed, and in order to confirm the degree of apoptosis, a TUNEL assay and cleaved caspase 3 immunostaining were performed. Meanwhile, a PBS only administration group was used as a negative control.

The subject of assay [10] is B16-F10. As to the kind of experiment: Animal model with induced resistance to anticancer agent (taxol), RdB/IL-12/DCN. It counts as in vivo, C57BL/6 mice. The settings on record: day 16 (15 days after first taxol administration); taxol 10 mg/kg i.p., RdB/IL-12/DCN 5×10^5 VP, αPD-1 200 μg. As for the experimental part:
Under the conditions where the anti-tumor effect caused by an anticancer agent is insignificant due to the resistance to the anticancer agent, and the like, it was intended to verify an in vivo anti-tumor effect by the co-administration of RdB/IL-12/DCN and the immune checkpoint inhibitor (an anti PD-1 antibody; αPD-1). After a B16-F10 mouse melanoma cell line was injected (5×10^5 cells) subcutaneously into the flank of C57BL/6 mice, taxol (day 1, 2, and 3; 10 mg/kg) was injected intraperitoneally into the formed tumor (day 1, about 50 mm^3), and after RdB/IL-12/DCN was administered alone (day 3, 5, 7, and 9; 5×10^5 VP), αPD-1 was administered alone (day 4, 7, 8, and 10; 200 μg), or RdB/IL-12/DCN and αPD-1 were co-administered (under the same conditions, respectively), the growth of tumors was observed. Meanwhile, a PBS only administration group was used as a negative control.

From patent US20250082702A1, “ANTICANCER COMPOSITION COMPRISING RECOMBINANT ADENOVIRUS EXPRESSING DEGRADATION FACTOR FOR EXTRACELLULAR MATRIX” (priority 2016, published 2025) come the findings set out here.

For the compound `Nc1ccn([C@@H]2O[C@H](CO)[C@@H](O)C2(F)F)c(=O)n1` [gemcitabine], the “ability to kill the pancreatic cancer cell lines (MTT assay)” value in [1], in assay [2] and in [3] was “at most 30%” throughout. The “change in size of tumors” value is recorded as “sharp increases in size of tumors” in assay [4], “sharp increase in size of tumors” in [6], “sharp increase in size of tumors” in assay [7] and “sharp increase in size of tumors” in [8]. Moreover, in assay [5], the “necrosis of cells in tumors (H & E staining)” value was “hardly observed”. Besides, the “necrosis or apoptosis of cells in tumors (H & E, TUNEL, cleaved caspase 3)” value in assay [9] is “almost hardly proceeded or was insignificant”.
In the case of `CC(=O)O[C@H]1C(=O)[C@@]2(C)[C@H]([C@H](OC(=O)c3ccccc3)[C@]3(O)C[C@H](OC(=O)[C@H](O)[C@@H](NC(=O)c4ccccc4)c4ccccc4)C(C)=C1C3(C)C)[C@]1(OC(C)=O)CO[C@@H]1C[C@@H]2O` [taxol], in assay [10], the size of tumors is listed as 5394.5±288.2 mm^3.
